Source: patent US20230113037A1 (Bayer Aktiengesellschaft, priority 2019, published 2023)
Read-outs that look alike come from different tables or passages of the source.

How the values were obtained:
[1] = molecular target: T1, AHR (Homo sapiens, UniProt P35869); assay: In vitro assay 1: antagonism in human cell line (AHR transactivation, firefly luciferase reporter, kynurenic acid prestimulated); format: cell-based; conditions: AHR Antagonism Human IC50 [M]
T1 construct: U87 MG glioblastoma cells (ATCC #HTB-14) endogenously expressing AHR; endogenous in cells; host or cells: U87 MG glioblastoma cells (ATCC #HTB-14)
T1 sequence (P35869 11-848): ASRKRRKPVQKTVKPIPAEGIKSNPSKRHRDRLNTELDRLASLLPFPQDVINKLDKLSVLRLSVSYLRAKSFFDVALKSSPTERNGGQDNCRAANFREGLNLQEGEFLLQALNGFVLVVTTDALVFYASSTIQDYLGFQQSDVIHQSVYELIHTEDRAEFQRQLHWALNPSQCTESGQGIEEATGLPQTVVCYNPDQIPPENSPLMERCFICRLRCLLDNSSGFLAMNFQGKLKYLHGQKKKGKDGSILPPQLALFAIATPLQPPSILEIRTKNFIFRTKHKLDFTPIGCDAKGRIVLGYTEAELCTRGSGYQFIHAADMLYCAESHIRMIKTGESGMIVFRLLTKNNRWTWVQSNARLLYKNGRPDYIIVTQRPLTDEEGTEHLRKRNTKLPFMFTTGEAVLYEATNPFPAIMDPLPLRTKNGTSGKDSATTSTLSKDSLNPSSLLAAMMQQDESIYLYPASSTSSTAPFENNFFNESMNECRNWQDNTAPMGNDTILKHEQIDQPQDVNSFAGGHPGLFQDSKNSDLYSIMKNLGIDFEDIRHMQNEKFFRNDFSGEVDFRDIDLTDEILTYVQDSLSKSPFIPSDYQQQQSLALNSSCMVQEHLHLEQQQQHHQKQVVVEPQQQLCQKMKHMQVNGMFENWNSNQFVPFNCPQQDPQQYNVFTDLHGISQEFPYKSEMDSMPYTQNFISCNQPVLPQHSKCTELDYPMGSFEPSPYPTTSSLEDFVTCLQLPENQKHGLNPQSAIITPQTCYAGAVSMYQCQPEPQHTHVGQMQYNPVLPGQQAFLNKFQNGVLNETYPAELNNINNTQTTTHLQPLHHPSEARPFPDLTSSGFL
How it was run: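 Antagonism is measured against kynurenic acid prestimulation in U87 MG glioblastoma cells carrying stable DRE-luciferase and Renilla reporters. Positive inhibition control: 150 μM kynurenic acid with 5 μM staurosporine. Values are normalized to controls; repeats are averaged or given as medians.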

[2] = molecular target: T2, AHR (Mus musculus, UniProt P30561); assay: In vitro assay 3: antagonism in mouse cell line (AHR transactivation, firefly luciferase reporter, kynurenic acid prestimulated); format: cell-based
T2 sequence (P30561 1-848 P471L/N533S/M589L): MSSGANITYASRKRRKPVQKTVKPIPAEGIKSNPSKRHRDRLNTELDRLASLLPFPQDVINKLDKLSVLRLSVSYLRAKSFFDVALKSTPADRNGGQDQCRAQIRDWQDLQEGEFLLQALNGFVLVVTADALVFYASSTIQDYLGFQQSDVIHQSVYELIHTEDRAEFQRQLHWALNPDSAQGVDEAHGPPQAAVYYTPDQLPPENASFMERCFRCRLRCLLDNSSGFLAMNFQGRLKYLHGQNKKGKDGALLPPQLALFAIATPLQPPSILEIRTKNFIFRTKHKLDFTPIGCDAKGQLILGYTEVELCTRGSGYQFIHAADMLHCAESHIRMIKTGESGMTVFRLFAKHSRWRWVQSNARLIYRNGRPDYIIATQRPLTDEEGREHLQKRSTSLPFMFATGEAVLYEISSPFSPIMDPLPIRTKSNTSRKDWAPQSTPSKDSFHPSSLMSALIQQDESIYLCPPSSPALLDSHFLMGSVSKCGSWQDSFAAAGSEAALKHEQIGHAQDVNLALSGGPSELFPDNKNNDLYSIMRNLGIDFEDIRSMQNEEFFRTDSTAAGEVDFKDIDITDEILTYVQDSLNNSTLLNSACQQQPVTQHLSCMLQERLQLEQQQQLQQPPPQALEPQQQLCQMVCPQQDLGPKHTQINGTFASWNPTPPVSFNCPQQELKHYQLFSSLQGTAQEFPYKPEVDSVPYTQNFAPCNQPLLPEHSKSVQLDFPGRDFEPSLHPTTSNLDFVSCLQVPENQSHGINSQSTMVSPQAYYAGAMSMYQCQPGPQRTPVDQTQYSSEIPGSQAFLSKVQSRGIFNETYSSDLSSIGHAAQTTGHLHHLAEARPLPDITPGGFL
How it was run: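 Luminescence from an AHR-dependent DRE-luciferase reporter, stably integrated in mouse cells, quantifies blockade of kynurenic acid-driven activation. Unstimulated cells mark maximal inhibition; normalization uses both control types, and multiply tested compounds carry mean or median values.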

[3] = read-out: AHR Antagonism Mouse IC50, mouse Hepa 1c1c7 cells, 200 μM kynurenic acid, 20 hours
[4] = mouse Hepa 1c1c7 cells, 200 μM kynurenic acid, 20 hours, read-out: AHR Antagonism Mouse IC50

IC50 [1] [M] | IC50 [2, 4] [nM] | SMILES | IC50 [2, 3] [nM]
8.4e-09 | 4.3 | COc1ccc(-c2nc3c4cccc(Br)c4nc(N[C@@H]4CCCCNC4=O)n3n2)c(C(F)(F)F)c1 [Example 569, (3R)-3-({7-bromo-2-[4-methoxy-2-(trifluoromethyl)phenyl][1,2,4]triazolo[1,5-c]quinazolin-5-yl}amino)azepan-2-one] | 
8.08e-07 | 80.7 | COc1ccc(-c2nc3c4cccc(Br)c4nc(N[C@H]4CCCCNC4=O)n3n2)c(C(F)(F)F)c1 [Example 570, (3S)-3-({7-bromo-2-[4-methoxy-2-(trifluoromethyl)phenyl][1,2,4]triazolo[1,5-c]quinazolin-5-yl}amino)azepan-2-one] | 
> 2e-05 | 10.1 | O=C1NCCCC[C@H]1Nc1nc2c(Br)cccc2c2nc(-c3ccc(Cl)cc3OC(F)(F)F)nn12 [Example 571, (3R)-3-({7-bromo-2-[4-chloro-2-(trifluoromethoxy)phenyl][1,2,4]triazolo[1,5-c]quinazolin-5-yl}amino)azepan-2-one] | 
> 2e-05 | 131 | O=C1NCCCC[C@@H]1Nc1nc2c(Br)cccc2c2nc(-c3ccc(Cl)cc3OC(F)(F)F)nn12 [Example 572, (3S)-3-({7-bromo-2-[4-chloro-2-(trifluoromethoxy)phenyl][1,2,4]triazolo[1,5-c]quinazolin-5-yl}amino)azepan-2-one] | 
3.36e-09 | 1.39 | CC[C@@H](Nc1nc2c(Br)cccc2c2nc(-c3ccc(Cl)cc3OC(F)(F)F)nn12)C(N)=O [Example 573, (2R)-2-({7-bromo-2-[4-chloro-2-(trifluoromethoxy)phenyl][1,2,4]triazolo[1,5-c]quinazolin-5-yl}amino)butanamide] | 
5e-09 | 1.07 | CC[C@H](Nc1nc2c(Br)cccc2c2nc(-c3ccc(Cl)cc3OC(F)(F)F)nn12)C(N)=O [Example 574, (2S)-2-({7-bromo-2-[4-chloro-2-(trifluoromethoxy)phenyl][1,2,4]triazolo[1,5-c]quinazolin-5-yl}amino)butanamide] | 
1.77e-08 | 2.96 | O=C1NCCCC[C@@H]1Nc1nc2c(Br)cccc2c2nc(-c3ccc(Cl)cc3OC(F)F)nn12 [Example 576, (3S)-3-({7-bromo-2-[4-chloro-2-(difluoromethoxy)phenyl][1,2,4]triazolo[1,5-c]quinazolin-5-yl}amino)azepan-2-one] | 
1.25e-08 | 2.91 | CC(C)[C@@H](Nc1nc2c(Br)cccc2c2nc(-c3cnn(C)c3)nn12)C(N)=O [Example 578, N^2-[7-bromo-2-(1-methyl-1H-pyrazol-4-yl)[1,2,4]triazolo[1,5-c]quinazolin-5-yl]-D-valinamide] | 
1.13e-08 | 68.1 | O=C1NCCCC[C@H]1Nc1nc2c(Br)cccc2c2nc(-c3cn[nH]c3)nn12 [Example 579, (3R)-3-{[7-bromo-2-(1H-pyrazol-4-yl)[1,2,4]triazolo[1,5-c]quinazolin-5-yl]amino}azepan-2-one] | 
5.4e-08 | 61.4 | Cn1cc(-c2nc3c4cccc(Br)c4nc(N[C@H]4CCCCNC4=O)n3n2)cn1 [Example 580, (3S)-3-{[7-bromo-2-(1H-methyl-1H-pyrazol-4-yl)[1,2,4]triazolo[1,5-c]quinazolin-5-yl]amino}azepan-2-one] | 
9.48e-10 | 3.11 | Cn1cc(-c2nc3c4cccc(C(F)(F)F)c4nc(N[C@@H]4CCCCNC4=O)n3n2)cn1 [Example 583, (3R)-3-{[2-(1-methyl-1H-pyrazol-4-yl)-7-(trifluoromethyl)[1,2,4]triazolo[1,5-c]quinazolin-5-yl]amino}azepan-2-one] | 
4.39e-08 | 153 | Cn1cc(-c2nc3c4cccc(C(F)(F)F)c4nc(N[C@H]4CCCCNC4=O)n3n2)cn1 [Example 584, (3S)-3-{[2-(1-methyl-1H-pyrazol-4-yl)-7-(trifluoromethyl)[1,2,4]triazolo[1,5-c]quinazolin-5-yl]amino}azepan-2-one] | 
6.91e-08 | 830 | Cn1cc(-c2nc3c4cccc(C(F)(F)F)c4nc(N[C@@H]4CCCNC4=O)n3n2)cn1 [Example 585, (3R)-3-{[2-(1-methyl-1H-pyrazol-4-yl)-7-(trifluoromethyl)[1,2,4]triazolo[1,5-c]quinazolin-5-yl]amino}piperidin-2-one] | 
7.7e-09 | 20.6 | COc1ccc(-c2nc3c4cccc(C(C)C)c4nc(N[C@@H]4CCCCNC4=O)n3n2)cc1 [Example 587, (3R)-3-{[2-(4-methoxyphenyl)-7-(propan-2-yl)[1,2,4]triazolo[1,5-c]quinazolin-5-yl]amino}azepan-2-one] | 
1.84e-08 | 1060 | CC(C)c1cccc2c1nc(N[C@@H]1CCCCNC1=O)n1nc(-c3cnn(C)c3)nc21 [Example 588, (3R)-3-{[2-(1-methyl-1H-pyrazol-4-yl)-7-(propan-2-yl)[1,2,4]triazolo[1,5-c]quinazolin-5-yl]amino}azepan-2-one] | 
5.21e-07 | > 20000 | O=C1NCCCC[C@H]1Nc1nc2c(Br)cc(Br)cc2c2nc(-c3cccc(F)c3)nn12 [Example 592, (3R)-3-{[7,9-dibromo-2-(3-fluorophenyl)[1,2,4]triazolo[1,5-c]quinazolin-5-yl]amino}azepan-2-one] | 
5.01e-07 | > 20000 | Cn1cc(-c2nc3c4cc(Br)cc(Br)c4nc(N[C@@H]4CCCCNC4=O)n3n2)cn1 [Example 594, (3R)-3-{[7,9-dibromo-2-(1-methyl-1H-pyrazol-4-yl)[1,2,4]triazolo[1,5-c]quinazolin-5-yl]amino}azepan-2-one] | 
5.18e-08 | 34 | O=C1NCCCC[C@H]1Nc1nc2ccccc2c2nc(-c3cnn(C4COC4)c3)nn12 [Example 595, (3R)-3-({2-[1-(oxetan-3-yl)-1H-pyrazol-4-yl][1,2,4]triazolo[1,5-c]quinazolin-5-yl}amino)azepan-2-one] | 
4.08e-06 | 3140 | CN1CCC(n2cc(-c3nc4c5ccccc5nc(N[C@@H]5CCCCNC5=O)n4n3)cn2)CC1 [Example 596, (3R)-3-({2-[1-(1-methylpiperidin-4-yl)-1H-pyrazol-4-yl][1,2,4]triazolo[1,5-c]quinazolin-5-yl}amino)azepan-2-one] | 

SMILES | IC50 [1] [M] | IC50 [2, 4] [nM] | IC50 [2, 3] [nM]
CC[C@H](Nc1nc2c(Br)cccc2c2nc(-c3ccc(OC)cc3OC(F)(F)F)nn12)C(N)=O [Example 568, (2S)-2-({7-bromo-2-[4-methoxy-2-(trifluoromethoxy)phenyl][1,2,4]triazolo[1,5-c]quinazolin-5-yl}amino)butanamide] | 3.31e-07 |  | 29.9
CC[C@@H](Nc1nc2c(Br)cccc2c2nc(-c3ccc(Cl)cc3OC(F)F)nn12)C(N)=O [Example 577, (2R)-2-({7-bromo-2-[4-chloro-2-(difluoromethoxy)phenyl][1,2,4]triazolo[1,5-c]quinazolin-5-yl}amino)butanamide] | 6.6e-10 |  | 0.281
